Values of other authors as cited in US20090318627A1, “SOLID PHASE SYNTHESIS OF ACRIDINIUM DERIVATIVES” (Siemens Healthcare Diagnostics Inc., priority 2006, published 2009).

Details: hydrolysis of ester linkage between acridinium ring and phenol

Compound	hydrolytic stability of the acridinium ester linkage, in words
9-carboxyphenyl-N-methylacridinium bromide	quite unstable
Cc1cc(C(=O)ON2C(=O)CCC2=O)cc(C)c1OC(=O)c1c2ccccc2[n+](C)c2ccccc12 [DMAE-NHS, 2′,6′-dimethyl-4′-(N-succinimidyloxycarbonyl)phenyl-10-methylacridinium-9-carboxylate]	significantly more resistant to hydrolysis
